System: green algae
Details: after the pH of the water becomes 6.0 or more acidic on acid addition
Source text: Experiments have also been carried out to add acid to suppress plankton.

Which “growth of green algae in Dian Ci Lake water” value does the source give for `Cl` [hydrochloric acid] here?
Its value is “totally inhibited”.

— US7632414B2, “Process for suppressing the growth of green algae in aqueous systems” (priority 2003, dated 2009)
